Experimental data as given in US20240199564A1, “TRPM8 AGONISTS AS COOLING AGENTS AND FOR THE TREATMENT OF DISEASE” (Concentric Analgesics, Inc., priority 2021, published 2024).

What was measured:
[1] = cited from earlier work
[2] = Solution state stability assay; assay type: physicochemical; settings: 50° C.; for % degradation at 28 days: HPLC
Method: Compounds were incubated in the buffer media indicated (ingredients for making of PBS buffer and sodium citrate/citric acid buffer were obtained from Sigma-Aldrich, St. Louis, MO, USA). The reactions were conducted at either 50° C. and for 28 days. Samples were collected at specific time points and analyzed for % degradation of the parent compound based on UV/Vis analysis.
Methods: Samples were weighed using a Mettler Toledo XS105 analytical balance (accurate to +/−0.01 mg). Accurate dilutions were made with a P1000, P200, or P20 Gilson Pipetman, or an Eppendorf Maxipettor 1-10 mL pipettor. pH Measurements were made with a Hanna Instruments HI 4222 pH meter and a Hanna instruments HI 1330B micro pH probe. Samples were analyzed via high pressure liquid chromatography using an Agilent series 1100 HPLC instrument with a Grace Alltima column. Chromatograms were manually integrated. Individual chromatograms are assigned an automatic HPLC identification number.
Freshly prepared 1.0 mg/mL solution of each compound listed in Table # was allotted into two-dram clear glass vials. […] The vials were then stored in an oven set to 50° C. At the appropriate time points, the vials were removed from the oven, vortexed for 30 seconds and an aliquot (400 μL) was pipetted into an HPLC vial and quenched with 1% TFA in ACN (400 μL). […] For all samples, aliquots were taken after 28 days. Quenched vials were immediately analyzed via HPLC.

[3] = molecular target: T1, human TRPM8 receptor expressed in transfected 293H cells (Homo sapiens, UniProt Q7Z2W7); assay: TRPM8 Human Transient Potential Ion Channel Cell Based Agonist Calcium Flux Assay (FLIPR); settings: Ca2+ mobilization, fluorometric detection, 293H cells; response relative to 3 μM icilin; read-out: TRPM8 agonist EC50
T1 construct: expressed in transfected cells; host or cells: 293H cells
T1 sequence (Q7Z2W7 whole entry): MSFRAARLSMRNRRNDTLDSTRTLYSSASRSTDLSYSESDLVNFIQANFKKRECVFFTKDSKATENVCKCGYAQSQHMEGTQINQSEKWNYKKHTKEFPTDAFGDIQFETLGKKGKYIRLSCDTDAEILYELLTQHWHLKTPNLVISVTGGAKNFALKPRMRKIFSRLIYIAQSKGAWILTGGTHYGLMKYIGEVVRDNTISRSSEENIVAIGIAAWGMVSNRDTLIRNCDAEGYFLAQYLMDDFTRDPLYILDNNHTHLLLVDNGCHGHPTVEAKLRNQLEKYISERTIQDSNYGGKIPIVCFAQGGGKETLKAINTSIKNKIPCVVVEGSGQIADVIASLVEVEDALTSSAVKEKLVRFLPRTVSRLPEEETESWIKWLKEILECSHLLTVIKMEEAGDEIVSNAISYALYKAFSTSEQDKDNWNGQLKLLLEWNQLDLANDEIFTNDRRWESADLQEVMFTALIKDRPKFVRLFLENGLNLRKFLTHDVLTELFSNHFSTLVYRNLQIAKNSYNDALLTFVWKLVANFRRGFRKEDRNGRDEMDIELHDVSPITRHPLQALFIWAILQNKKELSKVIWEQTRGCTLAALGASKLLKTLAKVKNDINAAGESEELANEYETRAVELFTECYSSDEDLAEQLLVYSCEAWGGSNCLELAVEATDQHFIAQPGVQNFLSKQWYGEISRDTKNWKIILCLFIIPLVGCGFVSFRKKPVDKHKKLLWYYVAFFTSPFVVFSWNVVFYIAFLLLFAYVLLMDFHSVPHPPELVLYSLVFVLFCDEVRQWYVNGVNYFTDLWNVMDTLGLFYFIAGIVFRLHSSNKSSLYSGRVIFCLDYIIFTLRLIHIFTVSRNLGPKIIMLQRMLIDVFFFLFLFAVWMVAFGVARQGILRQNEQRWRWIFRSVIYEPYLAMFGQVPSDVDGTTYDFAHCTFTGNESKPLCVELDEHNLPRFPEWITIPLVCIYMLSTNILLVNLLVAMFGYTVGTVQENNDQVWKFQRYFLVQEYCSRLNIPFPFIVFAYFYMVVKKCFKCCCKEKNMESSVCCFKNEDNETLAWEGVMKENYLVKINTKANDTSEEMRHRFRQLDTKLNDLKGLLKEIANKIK
Source text: This example discloses results from TRPM8 Human Transient Potential Ion Channel Cell Based Agonist Calcium Flux Assay. Evaluation of the agonist activity of compounds at the human TRPM8 receptor expressed in transfected 293H cells, determined by measuring their effect on cytosolic Ca2+ ion mobilization using a fluorometric detection method.
Protocol: The cells are suspended in DMEM buffer (Invitrogen), then distributed in microplates at a density of 3×10^4 cells/well. The fluorescent probe (Fluo4 Direct, Invitrogen) in HBSS buffer (Invitrogen) complemented with 20 mM Hepes (Invitrogen) (pH 7.4) is then added into each well and equilibrated with the cells for 60 min at 37° C. then 15 min at 22° C. Thereafter, the assay plates are positioned in a microplate reader (CellLux, PerkinElmer) which is used for the addition of the test compound, reference agonist or HBSS buffer (basal control), and the measurements of changes in fluorescence intensity which varies proportionally to the free cytosolic Ca2+ ion concentration. For stimulated control measurements, Icilin at 3 μM is added in separate assay wells. The results are expressed as a percent of the control response to 3 μM icilin. The standard reference agonist is Icilin, which is tested in each experiment at several concentrations to generate a concentration-response curve from which its EC50 value is calculated. (Behrendt, H. J., Germann, T., Gillen, C and Hatt, H. and Jostock, R. (2004), Characterization of the mouse cold-menthol receptor TRPM8 and vanilloid receptor type-1 VR1 using a fluorometric imaging plate reader (FLIPR) assay, Br. J. Pharmacol., 141: 737.)
Data analysis: EC50 values were determined as the concentration of test substance required to produce half-maximal increases in [Ca^2+]. Maximal [Ca^2+] responses were measured as peak fluorescence intensity (FI) minus basal FI, and expressed as percentages of the maximum response to icilin. Data are given as means±s.e.m., unless otherwise stated.
The EC50 values (concentration producing a half-maximal response) and IC50 values (concentration causing a half-maximal inhibition of the control agonist response) were determined by non-linear regression analysis of the concentration-response curves generated with mean replicate values using Hill equation curve fitting:
where Y=response, A=left asymptote of the curve, D=right asymptote of the curve, C=compound concentration, and C50=EC50, and nH=slope factor.

[4] = Solubility assay in DI water; assay type: physicochemical; settings: DI water, thermodynamic from solid, HCl salts, visual, stepwise dilution from 200 mg/mL, sonication and vortex
Method: In order to determine the aqueous solubility of the compounds indicated, the HCl salts of the following compounds were incubated at 200 mg/mL in DI water followed by sonication for 60 seconds and then vortex stirring for 60 seconds. If insoluble material was observed, the sample was diluted to 150, 100, 50, 25, or 20 mg/mL until no insoluble material was observed. After each dilution, each sample was sonicated for 60 seconds, vortexed for 60 seconds and let equilibrate with occasional shaking for 30 minutes.

| SMILES | known aqueous solubility in water [1] [mg/mL] | aqueous stability / hydrolysis, comparison in words ([2]; buffer, 28 days) | % degradation at 28 days ([2]; pH = ~5.0 (0.2 M aqueous sodium citrate/citric acid buffer)) [%] | % degradation at 28 days ([2]; pH = ~7.4 (1X Phosphate Buffered Saline)) [%] | EC50 [3] [nM] | solubility at 30 min [4] [mg/mL] |
| --- | --- | --- | --- | --- | --- | --- |
| CC(C)[C@@H]1CC[C@@H](C)C[C@H]1O [menthol, (1R,2S,5R)-2-isopropyl-5-methylcyclohexanol] | ~0.4 | – | – | – | – | – |
| CC(C)[C@@H]1CC[C@@H](C)C[C@H]1C(=O)NCc1ccc(CN)cc1.Cl [Compound 4, (1R,2S,5R)-N-(4-(aminomethyl)benzyl)-2-isopropyl-5-methylcyclohexanecarboxamide hydrochloride] | – | greatest aqueous stability | ~7.1 | ~1.7 | 100 | ≥ 20 |
